Legend:
TNF-α = assay: Intracellular TNF-α estimation in LPS activated murine neutrophils (flow cytometry); assay type: cell-based; conditions: 5 μg/ml, LPS 1 μg/ml, 3 h, ↑ upregulation
Experimental: (§1) Flowcytometric studies were carried out to determine the anti-inflammatory effect of active constituents of Withania somnifera extract on TNF-α and IL-1β cytokine expression in LPS activated murine neutrophils.
(§2) TNF-α and Interleukin 1 beta (IL-1β) cytokines play a major role in the pathogenesis of septic shock induced by LPS (Lipopolysaccharide) endotoxin injection. LPS is an important triggering factor for in vivo systemic inflammatory response. LPS activates neutrophils via engagement of TLR4 (Toll-like receptor 4), resulting in the induction of a characteristic proinflammatory phenotype and prolongation of cell lifespan. In brief, neutrophils extraction was performed by taking murine blood and centrifuging it at 250 g for 20 min. Middle layer was taken and layered with histopaque and incubated for 10 min. The samples were centrifuged at 700 g, the upper layer was taken and Facs Lysing solution added for the lysis of any traces of RBC. The samples were washed with PBS (200 g) for 10 min. Neutrophils were stimulated with. LPS (1 μg/ml) and incubated with test samples for 3 h, in CO2 incubator. […] A fluorescence trigger was set on the […] parameter of the gated neutrophil populations (10,000 events). Fluorescence compensation, data analysis, and data presentation was performed using Cell Quest Pro software (Beckton—Dickinson Biosciences, CA, USA). […]

IL-1β = assay: Intracellular IL-1β estimation in LPS activated murine neutrophils (flow cytometry); assay type: cell-based; conditions: 5 μg/ml, LPS 1 μg/ml, 3 h, ↑ upregulation
Experimental: as §1, §2

MCP-1 = assay: Cytometric Bead Array of peritoneal fluid, chronic zymosan peritonitis: MCP-1; assay type: in vivo, mouse; conditions: 2 mg/kg, vs Zymosan control
Experimental: (§3) Peritoneal inflammation was induced by Zymosan A (Sigma Chemical) (Masashi et al. Zymosan, but Not Lipopolysaccharide, Triggers Severe and Progressive Peritoneal Injury Accompanied by complement Activation in a Rat Peritonitis Model) was prepared freshly in sterile, 0.9% w/v saline, and 0.5 ml was injected i.p. from day 0 to Day 5. The lymphocyte population in the peripheral blood was determined with a flow cytometer. Cells were phenotyped by flow cytometry with the following primary antibodies: CD4 (FITC) and CD8 (PE). Cells were gated broadly on all live lymphocyte cells, with only debris and multiple cell clusters being excluded. Analysis of mean fluorescence intensity was done and percentage cell population was evaluated. […]
(§4) The Cytometric Bead Array (Mouse Inflammation kit) was used to study cytokines in peritoneal fluid. […] Briefly, a mixture of 6 capture bead populations (50 μl) with distinct fluorescence intensities (detected in FL3) coated with antibodies specific for the above cytokines was mixed with each sample/standard (50 μl). […] Following acquisition of data by two colour cytometric analysis, the sample results were analysed using CBA software (BD Biosciences). […] Individual cytokine concentration ratios were indicated by their fluorescent intensities and was determined by interpolation from the corresponding standard curve.

IL-10 = assay: Cytometric Bead Array of peritoneal fluid, chronic zymosan peritonitis: IL-10; assay type: in vivo, mouse; conditions: 2 mg/kg, vs Zymosan control
Experimental: as §3, §4

E. Coli (Gram-negative) = assay: Bacterial translocation from the gut into organs: E. coli; assay type: in vivo; conditions: Withanone 2 mg/kg; positive/6 mice
Experimental: (§5) Peritoneal inflammation was induced by Zymosan A (Sigma Chemical) (Masashi et al. Zymosan, but Not Lipopolysaccharide, Triggers Severe and Progressive Peritoneal Injury Accompanied by complement Activation in a Rat Peritonitis Model) was prepared freshly in sterile, 0.9% w/v saline, and 0.5 ml was injected i.p. from day 0 to Day 5. The lymphocyte population in the peripheral blood was determined with a flow cytometer. Cells were phenotyped by flow cytometry with the following primary antibodies: CD4 (FITC) and CD8 (PE). Cells were gated broadly on all live lymphocyte cells, with only debris and multiple cell clusters being excluded. Analysis of mean fluorescence intensity was done and percentage cell population was evaluated. The test drugs were administered for 30 days after the induction of peritonitis. On 36th day the peritoneal cavity was lavaged with 1.5 ml saline, and after a 30-s gentle manual massage, 0.5 ml exudate was retrieved, centrifuged at 3000 g for 3 min, and frozen at […] prior to cytokine and chemotactic-factor assessment.
(§6) Intestine serves as a barrier in preventing gut bacteria and/or endotoxin from spreading to organs and tissues. It is also known that bacterial translocation occurs in critically ill or immunocompromised patients, and the physical disruption of mucosal barrier in vivo rodent models seem to be a key factor Tor translocation (Deitch et al. Effect of hemorrhagic shock on bacterial translocation, intestinal morphology, and intestinal permeability in conventional and antibiotic-decontaminated rats; Critical Care Medicine; 1990 18(5)). Bacterial translocation from the gut into the peritoneal cavity and organs was analyzed. The mesenteric lymph nodes, liver, and spleen of mice, study group of 30, were removed using sterile instruments. The organs were then homogenized in 1 ml of sterile cooked meat broth and 50 μl of organ homogenate was spread on blood agar plates to detect aerobic bacteria and Eosin Methylene blue agar plates to detect specially for E. coli. These plates were then incubated at 37° C. for 2 days. […]

[1] = tested on: Klebsiella pneumoniae (Gram-negative); assay: Bacterial translocation from the gut into organs: K. pneumoniae; assay type: in vivo; conditions: Withanone 2 mg/kg; positive/6 mice
Experimental: as §5, §6

[2] = tested on: Proteus mirabilis (Gram-negative); assay: Bacterial translocation from the gut into organs: P. mirabilis; assay type: in vivo; conditions: Withanone 2 mg/kg; positive/6 mice
Experimental: as §5, §6

Procalcitonin = Procalcitonin in serum (ELISA), chronic zymosan peritonitis; assay type: in vivo, mouse; conditions: 2 mg/kg
Experimental: as §5
Procalcitonin is a precursor for calcitonin, a peptide hormone involved in calcium homeostasis. In response to pro-inflammatory stimulus of bacterial origin, the procalcitonin level rises. The blood was collected from retro-orbital plexus from the animals of all groups. The blood was allowed to stand for 2 hrs without addition of anti-coagulant. […]

CC1=C(C)C(=O)O[C@@H]([C@@H](C)[C@@]2(O)CC[C@H]3[C@@H]4[C@@H]5O[C@@H]5[C@@]5(O)CC=CC(=O)[C@]5(C)[C@H]4CC[C@@]32C)C1 [Withanone]
Percentage TNF-α inhibition compared to LPS control (TNF-α): 53% | Percentage IL-1β inhibition compared to LPS control (IL-1β): 32% | Inhibition of MCP-1 (MCP-1): 51% | Inhibition of IL-10 (IL-10): 52% | Bacterial translocation, Liver, E. coli (E. Coli (Gram-negative)): 1/6 | Bacterial translocation, Mesenteric Lymph Nodes, E. coli (E. Coli (Gram-negative)): 2/6 | Bacterial translocation, Spleen, E. coli (E. Coli (Gram-negative)): 1/6 | Bacterial translocation, Liver, k. pneumonia [1]: 0/6 | Bacterial translocation, Mesenteric Lymph Nodes, k. pneumonia [1]: 0/6 | Bacterial translocation, Spleen, k. pneumonia [1]: 1/6 | Bacterial translocation, Liver, p. mirabilis [2]: 0/6 | Bacterial translocation, Mesenteric Lymph Nodes, p. mirabilis [2]: 0/6 | Bacterial translocation, Spleen, p. mirabilis [2]: 0/6 | Decrease of expression level of procalcitonin compared to the Zymosan control (Procalcitonin): ~60%
